The values below come from article PMC6691843, “Seeking new approach for therapeutic treatment of cholera disease via inhibition of bacterial carbonic anhydrases: experimental and theoretical studies for sixteen benzenesulfonamide derivatives” (Journal of Enzyme Inhibition and Medicinal Chemistry, 2019).

Where two headings read alike, the source gives them in different places.

The target in data set [1] is VchCAγ (Vibrio cholerae, UniProt Q9KVT1). The data set is described as follows: stopped flow CO2 hydrase assay, VchCAγ. The data set is classed as biochemical.
Chain of VchCAγ (Q9KVT1 entry or part of it): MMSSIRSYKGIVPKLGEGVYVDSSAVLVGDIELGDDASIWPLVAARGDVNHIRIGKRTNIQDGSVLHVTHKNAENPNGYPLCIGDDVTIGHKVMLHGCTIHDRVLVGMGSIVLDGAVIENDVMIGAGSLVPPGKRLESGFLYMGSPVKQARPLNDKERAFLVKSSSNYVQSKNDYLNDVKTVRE
For data set [2], the target named is T1, VchCAα (Vibrio cholerae serotype O1, UniProt Q9KMP6).
T1 construct: made in house; host or cells: E. coli BL21 DE3
T1 sequence (Q9KMP6 21-239): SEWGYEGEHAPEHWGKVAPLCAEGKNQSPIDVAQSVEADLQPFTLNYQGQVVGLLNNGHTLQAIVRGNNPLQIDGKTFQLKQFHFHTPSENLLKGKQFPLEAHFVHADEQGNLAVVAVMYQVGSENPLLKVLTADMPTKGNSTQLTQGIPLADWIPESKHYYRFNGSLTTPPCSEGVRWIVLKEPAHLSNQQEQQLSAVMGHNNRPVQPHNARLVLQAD
Nature of the data set: stopped flow CO2 hydrase assay, VchCAα. The settings on record: for Ki: stopped flow CO2 hydrase assay, mean from three different assays. It counts as biochemical.

Data set [3] addresses VchCAβ (Vibrio cholerae, UniProt A0A086SLX8). Nature of the data set: stopped flow CO2 hydrase assay, VchCAβ. As to conditions: for inhibitory activity toward VchCAβ (in words): qualitative statement. The data set is classed as biochemical.
The subject of data set [4] is pathogen. The arrangement: method as in PMID 26010545. As to conditions: cited from earlier work.

Chain of VchCAβ (A0A086SLX8 entry or part of it): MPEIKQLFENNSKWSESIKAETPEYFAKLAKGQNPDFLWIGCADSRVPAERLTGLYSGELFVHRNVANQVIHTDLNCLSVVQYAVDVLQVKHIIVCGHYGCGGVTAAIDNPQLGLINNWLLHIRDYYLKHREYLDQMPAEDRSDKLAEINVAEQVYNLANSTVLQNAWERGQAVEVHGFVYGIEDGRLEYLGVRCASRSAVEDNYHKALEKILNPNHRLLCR

For `NS(=O)(=O)c1ccc(C(=O)N2CCCCC2)cc1` [5a, 4-(Piperidine-1-carbonyl)benzenesulfonamide], the Ki in data set [1] is more than 10 µM; in data set [2] (Ki VchCAα), 0.843 µM; in data set [3] it was more than 10 µM.

With `CC1CCCCN1C(=O)c1ccc(S(N)(=O)=O)cc1` (stereo not shown) [5b, 4-(2-Methylpiperidine-1-carbonyl)benzenesulfonamide], the inhibition constant (Ki) in data set [1] is more than 10 µM; in data set [2] (Ki VchCAα), 0.296 µM; in data set [3], more than 10 µM.

Take `CC1CCCN(C(=O)c2ccc(S(N)(=O)=O)cc2)C1` (stereo not shown) [5c, 4-(3-Methylpiperidine-1-carbonyl)benzenesulfonamide]: the inhibition constant Ki was more than 10 µM in data set [1], 0.529 µM in data set [2] (Ki VchCAα) and more than 10 µM in data set [3].

`CC1CCN(C(=O)c2ccc(S(N)(=O)=O)cc2)CC1` [5d, 4-(4-Methylpiperidine-1-carbonyl)benzenesulfonamide] gave a melting point of 212 to 213 °C. In data set [1], this compound displayed a Ki of more than 10 µM. Besides, the affinity in data set [2] (Ki VchCAα) corresponds to a Ki of 0.589 µM. This compound had a Ki in data set [3] of more than 10 µM.

As to `NS(=O)(=O)c1ccc(C(=O)N2CCC(Cc3ccccc3)CC2)cc1` [5e, 4-(4-Benzylpiperidine-1-carbonyl)benzenesulfonamide], the melting point lay within 156 to 157 °C. For the same compound, the inhibition constant Ki in data set [1] was more than 10 µM. The compound also gave a Ki in data set [2] (Ki VchCAα) of 0.242 µM. In data set [3], the affinity, expressed as Ki, was 3.75 µM.

Consider `NS(=O)(=O)c1ccc(C(=O)N2CCCCCC2)cc1` [6a, 4-(Azepane-1-carbonyl)benzenesulfonamide], for which the results for the Ki in data set [1], in data set [2] (Ki VchCAα) and in data set [3] were more than 10 µM, 0.275 µM and more than 10 µM, respectively.

On to `NS(=O)(=O)c1ccc(C(=O)N2CCC(c3ccccc3)CC2)cc1` [7a, 4-(4-Phenylpiperidine-1-carbonyl)benzenesulfonamide], for which the melting point lay in the range of 222 to 223 °C. Besides, the Ki in data set [1] is more than 10 µM. In data set [2] (Ki VchCAα), this compound had a Ki of 0.0433 µM. In addition, the affinity in data set [3] corresponds to a Ki of 3.31 µM.

The compound `NS(=O)(=O)c1ccc(C(=O)N2CCC(O)(c3ccccc3)CC2)cc1` [7b, 4-(4-Hydroxy-4-phenylpiperidine-1-carbonyl)benzenesulfonamide] registered a melting point of 135 to 137 °C. The compound further had a Ki in data set [1] of more than 10 µM. The inhibitory constant (Ki) in data set [2] (Ki VchCAα) is 0.194 µM. In data set [3], this compound came in with a Ki of 3.71 µM.

With `NS(=O)(=O)c1ccc(C(=O)N2CCC(O)(c3ccc(Cl)cc3)CC2)cc1` [7c, 4-[4-(4-Chlorophenyl)-4-hydroxypiperidine-1-carbonyl]benzenesulfonamide], the melting point was in the range of 215 to 217 °C. The compound further showed a Ki in data set [1] of more than 10 µM. Also, affinity in data set [2] (Ki VchCAα) was put at a Ki of 0.0451 µM. In addition, the Ki in data set [3] was 3.94 µM.

Take `NS(=O)(=O)c1ccc(C(=O)N2CCC(O)(c3ccc(Br)cc3)CC2)cc1` [7d, 4-[4-(4-Bromophenyl)-4-hydroxy-piperidine-1-carbonyl]benzenesulfonamide]: the melting point lay within 219 to 220 °C. This compound also yielded an inhibitory constant (Ki) in data set [1] of more than 10 µM. Moreover, the Ki in data set [2] (Ki VchCAα) was 0.0588 µM. This compound showed an inhibitory constant (Ki) in data set [3] of 2.78 µM.

On to `N#CC1(c2ccccc2)CCN(C(=O)c2ccc(S(N)(=O)=O)cc2)CC1` [7e, 4-(4-Cyano-4-phenylpiperidine-1-carbonyl)benzenesulfonamide], for which the melting point was in the range of 285 to 286 °C. In data set [1], this compound yielded a Ki of more than 10 µM. In data set [2] (Ki VchCAα), this compound yielded a Ki of 0.0899 µM. For the same compound, the inhibition constant Ki in data set [3] came to 0.806 µM.

Regarding `CC(=O)C1(c2ccccc2)CCN(C(=O)c2ccc(S(N)(=O)=O)cc2)CC1` [7f, 4-(4-Acetyl-4-phenyl-piperidine-1-carbonyl)benzenesulfonamide], the inhibition constant (Ki) in data set [1] was more than 10 µM; in data set [2] (read-out: Ki VchCAα), 0.0721 µM; in data set [3], 6.61 µM.

The compound `NS(=O)(=O)c1ccc(C(=O)N2CCN(Cc3ccccc3)CC2)cc1` [8a, 4-(4-Benzylpiperazine-1-carbonyl)benzenesulfonamide] displayed a melting point of 204 to 205 °C. For the same compound, the inhibition constant Ki in data set [1] is more than 10 µM. Also, the “reduction of activity on VchCAα compared to parent compound 8d” value in data set [2] (8a versus 8d) is on record as “ten-fold reduction of activity”. Moreover, the Ki in data set [2] (Ki VchCAα) was determined as 0.47 µM. Besides, in data set [3], the Ki was more than 10 µM and the “inhibitory activity toward VchCAβ (in words)” value is listed as “completely loss of inhibitory activity”.

With `NS(=O)(=O)c1ccc(C(=O)N2CCN(Cc3ccc(F)cc3)CC2)cc1` [8b, 4-[4-[(4-Fluorophenyl)methyl]piperazine-1-carbonyl]benzenesulfonamide], the melting point was 206 to 207 °C. This compound also came in with a Ki in data set [1] of more than 10 µM. Moreover, the inhibitory constant (Ki) in data set [2] (Ki VchCAα) turned out to be 0.0957 µM. For the same compound, in data set [3], the inhibition constant Ki was determined as 5.01 µM and the “inhibitory activity toward VchCAβ (in words)” value was “moderate inhibitors”.

As for `NS(=O)(=O)c1ccc(C(=O)N2CCN(C(c3ccccc3)c3ccccc3)CC2)cc1` [8c, 4-(4-Benzhydrylpiperazine-1-carbonyl)benzenesulfonamide], the Ki in data set [1] is more than 10 µM; in data set [2] (Ki VchCAα), 0.275 µM; in data set [3] it was 4.82 µM. Also, the “inhibitory activity toward VchCAβ (in words)” value in data set [3] is recorded as “moderate inhibitors”.

With `NS(=O)(=O)c1ccc(C(=O)N2CCN(c3ccccc3)CC2)cc1` [8d, 4-(4-Phenylpiperazine-1-carbonyl)benzenesulfonamide], the Ki in data set [1] is more than 10 µM; in data set [2] (Ki VchCAα) it was 0.047 µM; in data set [3], 4.16 µM. Further, the “inhibitory activity toward VchCAβ (in words)” value in data set [3] is listed as “moderate inhibitors”.

In the case of `CCOc1ccc2nc(S(N)(=O)=O)sc2c1` [EZA, ethoxzolamide], in data set [4], the growth of pathogen entry is “reduce the growth of pathogen” and the virulence gene expression result is listed as “decrease the virulence gene expression”.

The term Ki denotes a measure of affinity in units of concentration, obtained from inhibition or displacement. In general, melting point refers to the temperature of the solid-liquid transition.
